Test results: patent US9290535B2, “Uridine-based gadolinium complex and MRI contrast agent including the same” (Korea University Researchand Business Foundation, priority 2011, dated 2016)

Columns and labels:
[1] = clinically used commercial T1 contrast agents, comparison values; cited from earlier work
[2] = Contrast-enhanced dynamic MRI in mice (CNR in liver and blood); type: in vivo, Balb/C mice; conditions: i.v. injection, 4.7 T
Protocol: The whole-body pharmacokinetics of T1 contrast agents can be measured by dynamic 2D or 3D MR imaging.
5-Week-old male Balb/C mice (n=3; OrientBio, Korea) were used for contrast-enhanced dynamic MRI. MRI was performed by using a 4.7 T MRI system (BioSpec 47/40; Bruker, Germany) with a quadrature birdcage RF coil (35 mm inner diameter) for signal transmission and reception.
Bolus of the contrast agents (0.1 mmol Gd/kg) was injected via tail vein. During MRI acquisition, the animals were anesthetized using 1-1.25% of inhalational isoflurane with O2:N2O (3:7) mixture.
To quantitatively measure signal intensity in region-of-interests (ROIs) as contrast-noise ratio (CNR), a reference of water sample (1 g/l CuSO4 in 8:2 of D2O:H2O) in a cylindrical tube (5 mm diameter) was used.
Dynamic 2D T1-weighted images were acquired using a spin-echo (SE) pulse sequence with the following parameters: TE/TR=10/400 ms, number of average=4, matrix size=256×256, slice thickness=1 mm, field of view=30×30 mm^2 (in axial slice) or 50×30 mm^2 (in coronal slice), and scan time=6 min 50 s).
Dynamic 3D T1-weighted images were acquired using a fast low angle shot gradient echo (FLASH) pulse sequence with parameters of TE/TR=2.4/7.5 ms, number of average=4, flip angle=30°, field of view=30×30×20 mm^3, matrix size=256×256×128, and scan time=12 min 17 s.

[3] = Relaxivity measurements (r1, r2) in PBS solution; type: physicochemical; conditions: PBS solution, 36° C.
Protocol: Longitudinal and transverse relaxivities, r1 and r2, were measured at 20 MHz (0.47 T) and 60 MHz (1.41 T) at 36° C. on NMR (mq20 and mq60, Bruker, Germany) and animal MRI (Biospec 47/40, Bruker, Germany) systems. T1 and T2 relaxation times were measured with inversion recovery and spin-echo pulse sequences, respectively.
The relaxation efficiency of the newly synthesized amphiphilic MRI contrast agents according to the present invention was determined by measuring longitudinal relaxivity (r1) and transverse relaxivity (r2) at 20 MHZ (0.47 T) and 60 MHz (1.41 T) in phosphate buffered saline (PBS) solution at 36° C.

**Q.** Which “Relaxivity retained after transmetallation (commercial contrast agents)” value [1] does the source give for `CNC(=O)CN(CCN(CCN(CC(=O)[O-])CC(=O)NC)CC(=O)[O-])CC(=O)[O-].[Gd+3]` [Omniscan ®, Gd-DTPA-BMA, reference compound] here?
**A.** 10%

**Q.** What about the “Peak CNR in liver” value [2] of the same molecule?
**A.** about 2.8

**Q.** And the “Relaxivity r1” value ([3]; 20 MHz (0.47 T))?
**A.** 4.41 mM⁻¹ s⁻¹

**Q.** And the “Relaxivity r1” value ([3]; 60 MHz (1.41 T))?
**A.** 3.68 mM⁻¹ s⁻¹
